Measured values published in article PMC3880013, “Toward an Understanding of Agonist Binding to Human Orexin-1 and Orexin-2 Receptors with G-Protein-Coupled Receptor Modeling and Site-Directed Mutagenesis” (Biochemistry, 2013).
Marks after values point to notes of the source that are not given here.

How the values were obtained:
Assay in all cases: Calcium flux assay, CHO-K1 cells stably expressing Orexin receptor mutant
Assay type in all cases: cell-based, human
hOX1 Q179A = hOX1 Q179A (4.60) vs wild type, CHO-K1, Fluo-4AM, this work
Protocol: (§1) A combination of overlap and mismatch polymerase chain reaction (PCR) was used to introduce mutations into the corresponding Orexin-1 and Orexin-2 cDNAs as described by us previously.[62] Each mutation was made via the generation of two overlapping PCR fragments with PfuUltra II Fusion HS DNA Polymerase (Strategene). The two products were extracted, and a second round of PCR was performed via combination of both fragments with 5′ and 3′ gene specific primers (containing BamHI and NotI restriction sites, respectively). The resulting gel-purified products were then cloned into expression vector pFB-Neo for subsequent generation of stable cell lines. Constructs were confirmed via sequencing. Each verified cDNA was subsequently used to generate single, stably expressing clones in the CHO-K1 cell line.
(§2) Standard calcium flux assays were used to assess the functionality of each OX receptor mutant. Each CHO-K1 Orexin mutant was seeded into tissue culture-treated, 384-well, black clear-bottom plates (CellBind Corning 7086), at a density of 7500 cells/well in culture medium and maintained in an incubator (5% CO2 at 37 °C) overnight. The cell medium was removed, and the cells were incubated in 20 μL of assay buffer (4 μM Fluo-4AM in HBSS with 0.1% BSA) for 90 min at 37 °C. After incubation, the dye was removed and 45 μL of fresh buffer, without dye, was applied. Antagonists (5 μL) were applied, and after incubation for an additional 20 min at 37 °C, 20 μL of receptor specific agonists was applied and the calcium flux monitored using a Flex Station (Molecular Devices) over a period of 1 min. In all cases, the EC80 specific for the individual mutant as determined in previous experiments was reported.

hOX1 Y311F = hOX1 Y311F (6.48) relative to wild type, CHO-K1, Fluo-4AM, this work
Protocol: as §1, §2

hOX2 F227W = hOX2 F227W (5.42) relative to wild type, CHO-K1, Fluo-4AM, this work
Protocol: as §1, §2

hOX2 Q134A = hOX2 Q134A (3.32) relative to wild type, CHO-K1, Fluo-4AM, this work
Protocol: as §1, §2

hOX2 Q187A = hOX2 Q187A (4.60) relative to wild type, CHO-K1, Fluo-4AM, this work
Protocol: as §1, §2

Orexin-B
fold improvement in potency relative to wild type (hOX1 Q179A): 72.2 fold improvement
ratio EC50(mut)/EC50(WT) (hOX1 Y311F): 0.85 ^d fold
ratio EC50(mut)/EC50(WT) (hOX2 F227W): 75.0 ^d fold
ratio EC50(mut)/EC50(WT) (hOX2 Q134A): 5.1 ^d fold
ratio EC50(mut)/EC50(WT) (hOX2 Q187A): 1.7 ^d fold
